Measured values taken from patent US6664263B2, “1,8-naphthalimide imidazo{4,5,1-de}acridones with anti-tumor activity” (priority 2000, dated 2003).
Where two headings read alike, the source gives them in different places.

Legend:
[1] = tested on: HT29 cells; test: cells; settings: for IC50: read-out: IC50 - drug concentration which causes 50% cell growth inhibition
Description: (§1) Cancer Cell Lines. Human colon carcinoma HCT116 and HT29, human melanoma MELSK2, human lung cancer A549, human leukemia HL60 and human breast cancer MCF7 cells were purchased from the American Type Culture Collection (Rockville, Md.). Human pancreatic tumor cell lines 6.03 and 10.05 were a gift from Dr. Elizabeth Jaffe, Johns Hopkins University.
(§2) In Vitro Cytotoxicity Studies. Cells were seeded in quadruplicate for each studied concentration in 96-well plates (100 μL of medium containing 2000-2500 cells per well) and were allowed to grow for 24 h (day 0). Stock solutions (2.5 mM) of test compounds were prepared freshly by dissolving their free base forms in distilled water-DMSO (50:50) mixture containing two equivalents of methanesulfonic acid and then diluted in distilled water to the concentration of 500 μM. These solutions were used to prepare 2 μM working solution and its 10-fold serial dilutions in appropriate media. 100 μL of drug containing medium or vehicle (control) was added to each well on day 1. The cytotoxicity was determined using two different methods: the MTT-based, CellTiter96™ Non-Radioactive Cell Proliferation Assay (Promega Inc., Madison, Wis.) according to instructions provided by the manufacturer, and/or the sulforhodamine B (SRB) method (Skehan et al., J. Natl. Cancer Inst. 82:1107-1112 (1990)). At the time at which drugs were added assays were performed on extra reference plates to determine the cell population density at time 0 (T0). After 96 h incubation at 37 ° C. in a humidified atmosphere containing 5% CO2, the assays were performed on test (T) and control (C) plates. The absorbance of the wells was determined by a Microplate Reader at […]. Cellular responses were calculated from the data as described previously: 100×[(T−T0)/(C−T0)] for T>T0 and 100×[(T−T0)/T0] for T<T0. (Monks et al., J. Natl. Cancer Inst. 83:757-766 (1991)).
(§3) At the end of the test period the wells are treated with the MTT dye solution and incubated for 4 hours. Cells which are alive convert the yellow tetrazolium dye into the blue, insoluble formazan product. This precipitate is solubilized, and the absorption at 570 nm is read in an ELISA reader.

[2] = tested on: MELSK2 cells; test: cells; settings: for IC50: read-out: IC50 - drug concentration which causes 50% cell growth inhibition
Description: as §1, §2, §3

[3] = tested on: A549 cells; test: cells; settings: for IC50: read-out: IC50 - drug concentration which causes 50% cell growth inhibition
Description: as §1, §2, §3

[4] = tested on: HCT116 cells; test: cells; settings: for growth inhibition of HCT116 at 1 nM: MTT dose-response; for IC50: read-out: IC50 - drug concentration which causes 50% cell growth inhibition
Description: as §1, §2, §3

[5] = tested on: MCF7 cells; test: cells; type: cell-based; settings: for IC50: read-out: IC50 - drug concentration which causes 50% cell growth inhibition
Description: (§4) In Vitro Cytotoxicity Studies.

[6] = tested on: HL60 cells; test: cells; type: cell-based; settings: for IC50: read-out: IC50 - drug concentration which causes 50% cell growth inhibition
Description: as §4

[7] = tested on: HCT116, HT29, A549 and MelSK2 tumor cell lines; test: MTT cell proliferation assay at 100 nM on four tumor cell lines (FIG. 2); type: cell-based; settings: 96 hours; for cytotoxic activity against the three adenocarcinomas: HCT116, HT29, A549
Description: as §1
as §2, with “(Monks et al., J. Natl. Cancer Inst. 83:757-766 (1991)).” left out
At the end of the test period the wells are treated with the MTT dye solution and incubated for 4 hours. […] This precipitate is solubilized, and the absorption at 570 nm is read in an ELISA reader.

[8] = tested on: NCI 60 human tumor cell line panel; test: NCI 60 human tumor cell line panel; type: cell-based; settings: NCI 60 panel
[9] = tested on: 10.05 pancreatic cancer line; test: Flow cytometry (FACS) cell cycle analysis, 10.05; type: cell-based, human; settings: 10.05 cells
Description: (§5) Flow Cytometry Analysis. A suspension of 0.5×10^6 cells in 8 ml of medium were placed in 25 cm^2 T flask and allowed to attach for 24 h. The cells were then exposed for 6 h to 100 nM of drug . After removal of drug the cells were washed with PBS. Fresh medium (8 ml) was added and incubation at 37° C. in 5% CO2 in complete humidity was continued for an additional five days. At appropriate intervals, treated and control cells were released from flasks by incubation with trypsin (0.05 mg/ml)/EDTA (0.02 mg/ml) for 5 min at 37° C., collected in ice-cold PBS, combined with the removed medium that might contain floating cells, and centrifuged at 4° C. Cell pellets were re-suspended in PBS containing 1% fetal bovine serum. The cells were fixed and stained for fluorescence-activated cell sorting according to standard procedures (Crissman et al., Cytometry 3:84-90(1992)). Fluorescence histograms were obtained on a Coulter EPICS753 Cell Sorter using an argon laser and mean peaks were analyzed.
(§6) Similar cell cycle experiments were carried out on the 10.05 pancreatic cancer line.

[10] = tested on: 10.05 pancreatic cancer cells; test: Morphological examination of treated cells; type: cell-based, human; settings: 10.05 cells, treated vs untreated
Description: The FACS analysis evidence of apoptosis was substantiated by morphological examination of the treated 10.05 pancreatic cancer cells. […] Similar results were obtained with the 6.03 cells.

[11] = tested on: pancreatic cell line 10.05; test: SRB-based assay, pancreatic cell line 10.05 (FIG. 5); set-up: species or system human; settings: 120 hrs exposure
Description: as §4
(§7) The compound of Example 2 is also potently cytotoxic against extremely refractory pancreatic cancer cell lines. FIG. 5 presents the results of an SRB-based assay on the toxicity of Example 2 against the four cell lines mentioned above, and against two pancreatic cell lines, 6.03 and 10.05 (obtained from Dr. Elizabeth Jaffe, Johns Hopkins University, Baltimore Md.). […] were exposed to the agent for 120 hrs. It is clear that both of these lines are sensitive to the compound.

[12] = tested on: 6.03 pancreatic cancer cells; test: Flow cytometry (FACS) cell cycle analysis, 6.03; type: cell-based, human; settings: 6.03 cells
Description: as §5, §6

[13] = tested on: HCT116, HT29, A549 and Mel.SK2 tumor cell lines; test: Sulforhodamine B (SRB) assay on the four tumor types (FIG. 4); type: cell-based; settings: varying concentrations
Description: as §4

[14] = tested on: pancreatic cell line 6.03; test: SRB-based assay, pancreatic cell line 6.03 (FIG. 5); set-up: species or system human; settings: 120 hrs exposure
Description: as §4, §7

[15] = tested on: HCT 116 colon cancer cell; test: Flow cytometry (FACS) cell cycle analysis, HCT116; type: cell-based, human; settings: 100 nM for 6 hrs, then culture
Description: as §5
In order to determine the mode of cell death induced by the compounds of the invention, the effect of the compound of Example 2 on the cell cycle was studied, utilizing Fluorescence Activated Cell Sorting SACS) analysis. HCT 116 colon cancer cell were treated with the compound of Example 2 for 6 hrs at a concentration of 100 nM, and then allowed to grow in culture for varying times.

[16] = read-out: LC50 - drug concentration which causes 50% cell death, HT29, 96 h incubation
[17] = read-out: LC50 - drug concentration which causes 50% cell death, MELSK2, 96 h incubation
[18] = read-out: LC50 - drug concentration which causes 50% cell death, A549, 96 h incubation
[19] = read-out: LC50 - drug concentration which causes 50% cell death, HCT116, 96 h incubation
[20] = MCF7, 96 h incubation, read-out: LC50 - drug concentration which causes 50% cell death
[21] = HL60, 96 h incubation, read-out: LC50 - drug concentration which causes 50% cell death

Structure (SMILES)	CC50 [1]	IC50 ([1]; HT29, 96 h incubation)	CC50 [2]	IC50 ([2]; MELSK2, 96 h incubation)	CC50 [3]	IC50 ([3]; A549, 96 h incubation)	CC50 [4]	growth inhibition of HCT116 at 1 nM ([4]; FIG. 3)	IC50 ([4]; HCT116, 96 h incubation)	CC50 [5]	IC50 ([5]; MCF7, 96 h incubation)	CC50 [6]	IC50 ([6]; HL60, 96 h incubation)	cytotoxic activity against the three adenocarcinomas [7]	CC50 [1, 16]	CC50 [2, 17]	CC50 [3, 18]	CC50 [4, 19]	CC50 [5, 20]	CC50 [6, 21]	also measured
O=C1c2cccc3cc([N+](=O)[O-])cc(c23)C(=O)N1CCCN1CCN(CCCNc2ccc3ncn4c5ccc(F)cc5c(=O)c2c34)CC1 [Example 4]	0.035 µM	0.0015 µM	0.07 µM	0.004 µM	0.035 µM	0.0006 µM	0.035 µM	almost complete growth inhibition	0.0005 µM	> 1 µM	0.0035 µM	0.033 µM	0.0035 µM	outstanding cytotoxic activity							
Nc1cc2c3c(cccc3c1)C(=O)N(CCCN1CCN(CCCNc3ccc4ncn5c6ccc(F)cc6c(=O)c3c45)CC1)C2=O [Example 8]	> 1 µM	0.0035 µM	> 1 µM	0.02 µM	0.15 µM	0.002 µM	0.23 µM		0.0018 µM	> 1 µM	0.046 µM	0.45 µM	0.004 µM								
O=C1c2cccc3cc([N+](=O)[O-])cc(c23)C(=O)N1CCCN1CCN(CCCNc2ccc3ncn4c5ccccc5c(=O)c2c34)CC1 [Example 2]	0.065 µM	0.0009 µM	0.06 µM	0.004 µM	0.035 µM	0.0006 µM	0.032 µM	almost complete growth inhibition	0.0005 µM	> 1 µM	0.0032 µM	0.033 µM	0.0035 µM	outstanding cytotoxic activity							median activity, growth inhibition of all of the tumor cell lines [8]: nanomolar range; apoptosis (growth of the sub-G1 fraction) at 144 hrs [9]: substantial apoptosis; morphology of treated cells [10]: evidence of chromatin fragmentation; effect on line 10.05 at 1 μM [11]: substantial cell death; apoptosis by cell cycle analysis [12]: strong evidence of apoptosis; cytotoxic activity in the SRB assay compared with MTT [13]: essentially mirror the results obtained with the MTT end-point; effect on line 6.03 at 100 nM [14]: growth arrested; cell cycle effect at 24 hrs ([15]; 24 hrs): growth arrested at G2-M; sub-G1 fraction (apoptotic death) at 96 hrs ([15]; 96 hrs): dominated the distribution
Nc1cc2c3c(cccc3c1)C(=O)N(CCCN1CCN(CCCNc3ccc4ncn5c6ccccc6c(=O)c3c45)CC1)C2=O [Example 6]		0.008 µM		0.015 µM		0.0025 µM			0.0022 µM		0.032 µM		0.005 µM		0.75 µM	0.75 µM	0.1 µM	0.08 µM	> 1 µM	0.45 µM	
CN(C)CCN1C(=O)c2cccc3cc([N+](=O)[O-])cc(c23)C1=O [Mitonafide, mitonafide, reference compound]																					IC50 ([1]; Homo sapiens, HT-29, 96 h): 0.3 µM; IC50 ([2]; Homo sapiens, 96 h): 0.15 µM; CC50 ([2]; Homo sapiens, 96 h, read-out: LC50 - drug concentration which causes 50% cell death): 0.7 µM; IC50 ([3]; Homo sapiens, A549, 96 h): 0.065 µM; CC50 ([3]; Homo sapiens, A549, 96 h, read-out: LC50 - drug concentration which causes 50% cell death): 0.8 µM; concentration at which almost complete growth inhibition is reached ([4]; HCT116, MTT dose-response, FIG. 3): 1 µM; IC50 ([4]; Homo sapiens, HCT-116, 96 h): 0.25 µM; CC50 ([4]; Homo sapiens, HCT-116, 96 h, read-out: LC50 - drug concentration which causes 50% cell death): > 1 µM; IC50 ([5]; Homo sapiens, MCF7, 96 h): 0.245 µM; CC50 ([5]; Homo sapiens, MCF7, 96 h, read-out: LC50 - drug concentration which causes 50% cell death): > 1 µM; IC50 ([6]; Homo sapiens, HL-60, 96 h): 0.045 µM; CC50 ([6]; Homo sapiens, HL-60, 96 h, read-out: LC50 - drug concentration which causes 50% cell death): 0.4 µM; activity at 100 nM drug concentration ([7]; HCT116, HT29, A549, MelSK2): not very active
CN(CCCNc1ccc2ncn3c4ccccc4c(=O)c1c23)CCCN1C(=O)c2cccc3cc([N+](=O)[O-])cc(c23)C1=O [Example 1]		0.025 µM		0.15 µM		0.025 µM			0.008 µM		0.05 µM		0.12 µM		0.4 µM	> 1 µM	0.5 µM	0.22 µM	> 1 µM	0.5 µM	
